These results are taken from ChEMBL document CHEMBL5257059, “Pyridine-Based 1,2,4-Triazolo-Tethered Indole Conjugates Potentially Affecting TNKS and PI3K in Colorectal Cancer” (ACS Med Chem Lett, 2023).

What all share (type): functional, cell-based
For assay [1], the system named is HT-29. The assay can be described thus: Antiproliferative activity against human HT-29 cells assessed as inhibition of cell growth incubated for 24 hrs by MTT assay. To be noted: HT-29, 24 h. In general terms: Tetrazolium assays rely on reduction of a dye to a coloured formazan, in cell work by metabolically active cells.
Assay [2] has as its system A549. The assay can be described thus: Antiproliferative activity against human A549 cells assessed as inhibition of cell growth incubated for 24 hrs by MTT assay. Particulars: A549, 24 h.
For assay [3], the system named is A 172. Nature of the assay: Antiproliferative activity against human A-172 cells assessed as inhibition of cell growth incubated for 24 hrs by MTT assay. Particulars: A 172, 24 h.
The test system of assay [4] is Caco-2. Nature of the assay: Antiproliferative activity against human Caco-2 cells assessed as inhibition of cell growth incubated for 24 hrs by MTT assay. Particulars: Caco-2, 24 h.
Assay [5] relates to DLD-1. The assay can be described thus: Antiproliferative activity against human DLD-1 cells assessed as inhibition of cell growth incubated for 24 hrs by MTT assay. To be noted: DLD-1, 24 h.
A short description of assay [6]: Antiproliferative activity against human Tera-1 cells assessed as inhibition of cell growth incubated for 24 hrs by MTT assay. To be noted: Tera-1, 24 h.

For orientation: IC50 means the concentration needed to halve the response being measured. Consider `O=c1[nH]cc(F)c(=O)[nH]1` [FLUOROURACIL], for which, in assay [1], the IC50 was 5.31 µM.

For the compound `c1ccc(Cn2c(SCCc3c[nH]c4ccccc34)nnc2-c2ccncc2)cc1`, the IC50 in assay [2] was 13.9 µM; in assay [3] it was 8.1 µM; in assay [1] it was over 30 µM; in assay [4], over 30 µM; in assay [5], 25.8 µM; in assay [6], 10.7 µM.

As to `CCCCn1c(SCCc2c[nH]c3ccccc23)nnc1-c1ccncc1`, the IC50 in assay [2], in assay [3], in assay [1], in assay [4], in assay [5] and in assay [6] was over 30 µM throughout.

As to `O=[N+]([O-])c1ccc(-n2c(SCCc3c[nH]c4ccccc34)nnc2-c2ccncc2)cc1`, the IC50 in assay [2] was over 30 µM; in assay [3], 16.9 µM; in assay [1], over 30 µM; in assay [4], over 30 µM; in assay [5] it was over 30 µM; in assay [6], over 30 µM.

For `Cc1ccc(-n2c(SCCc3c[nH]c4ccccc34)nnc2-c2ccncc2)cc1`, the IC50 was 13.5 µM in assay [2]; 20.3 µM in assay [3]; over 30 µM in assay [1]; 17.8 µM in assay [4]; 16.5 µM in assay [5]; over 30 µM in assay [6].

In the case of `Cc1ccccc1-n1c(SCCc2c[nH]c3ccccc23)nnc1-c1ccncc1`, the IC50 in assay [2], in assay [3], in assay [1], in assay [4], in assay [5] and in assay [6] was over 30 µM throughout.

In the case of `c1ccc(-n2c(SCCc3c[nH]c4ccccc34)nnc2-c2ccncc2)cc1`, the IC50 is over 30 µM in assay [2]; 26.8 µM in assay [3]; over 30 µM in assay [1]; over 30 µM in assay [4]; 19 µM in assay [5]; over 30 µM in assay [6].

Turning to `Brc1ccccc1-n1c(SCCc2c[nH]c3ccccc23)nnc1-c1ccncc1`, the IC50 in assay [2] was 4 µM; in assay [3], over 30 µM; in assay [1] it was over 30 µM; in assay [4], over 30 µM; in assay [5], over 30 µM; in assay [6] it was over 30 µM.

Take `CCCn1c(SCCc2c[nH]c3ccccc23)nnc1-c1ccncc1`: the IC50 in assay [2], in assay [3], in assay [1], in assay [4], in assay [5] and in assay [6] was over 30 µM in each case.

`C=CCn1c(SCCc2c[nH]c3ccccc23)nnc1-c1ccncc1`: the IC50 in assay [2], in assay [3], in assay [1], in assay [4], in assay [5] and in assay [6] was over 30 µM each time.

`Brc1cccc(-n2c(SCCc3c[nH]c4ccccc34)nnc2-c2ccncc2)c1`: the IC50 amounted to 14.5 µM in assay [2]; 14.7 µM in assay [3]; 12.2 µM in assay [1]; 10.5 µM in assay [4]; 15.3 µM in assay [5]; 24.6 µM in assay [6].

For `Clc1ccc(-n2c(SCCc3c[nH]c4ccccc34)nnc2-c2ccncc2)cc1`, the IC50 is 18.7 µM in assay [2]; 23.3 µM in assay [3]; over 30 µM in assay [1]; 25 µM in assay [4]; 21.8 µM in assay [5]; over 30 µM in assay [6].

Turning to `Cc1cccc(C)c1-n1c(SCCc2c[nH]c3ccccc23)nnc1-c1ccncc1`, the IC50 in assay [2], in assay [3], in assay [1], in assay [4], in assay [5] and in assay [6] was over 30 µM each time.

Take `Clc1cccc(-n2c(SCCc3c[nH]c4ccccc34)nnc2-c2ccncc2)c1`: the IC50 was over 30 µM in assay [2]; over 30 µM in assay [3]; 7.3 µM in assay [1]; 13.5 µM in assay [4]; 11 µM in assay [5]; over 30 µM in assay [6].

For `Fc1ccc(-n2c(SCCc3c[nH]c4ccccc34)nnc2-c2ccncc2)cc1`, the half-maximal inhibitory concentration (IC50) in assay [2] is 8.09 µM; in assay [3], over 30 µM; in assay [1] it was 5.8 µM; in assay [4], 10.3 µM; in assay [5] it was 10.6 µM; in assay [6], over 30 µM.
